For 17 compounds, IC50 and microsomal CLint results are on record in patent US9714244B2, “Substituted pyrido[4,3-d]pyrimidines as Wee-1 inhibitors” (ALMAC DISCOVERY LIMITED, priority 2013, dated 2017).

The target of data set [1] is Wee-1 kinase (Homo sapiens (Human), UniProt P30291). In words: Measurement of Wee-1 kinase activity (ADP-Glo). As to conditions: read-out: Wee-1 IC50 activity. It is filed as biochemical. On the procedure: Method 1: Measurement of Wee-1 kinase activity
In the measurement of Wee-1 activity, a commercial peptide Poly(Lys Tyr(4:1)) hydrobromide was purchased from Sigma Aldrich and used as the substrate. Activated Wee-1 kinase was purchased from Invitrogen (PV3817) and an ADP-Glo luminescent kit was purchased from Promega.
All reactions took place in […] volumes in reaction buffer containing 40 mM Tris-HCl and 20 mM magnesium chloride, supplemented with 0.1 mg/mL bovine serum albumin and 2 mM DTT. Compounds were serially diluted in buffer and 5 μL of each concentration pipetted into a white 384 well plate (Sigma Aldrich M6186). A 5 μL aliquot of the Wee-1 enzyme was added to each well and the plate centrifuged for 1 min to ensure mixing of the enzyme and inhibitor.
The plate was incubated at room temperature for 30 minutes before the addition of 2.0 μg/mL of substrate and 30 μM ATP in a 5 μL aliquot. The plate was centrifuged for one minute and incubated for 1 h at RT.
15 μL of ADP-Glo stop reagent was added to each well to quench the reaction and deplete unconverted ATP. The plate was incubated for a further 40 min in the dark at RT.
30 μL of ADP-Glo kinase detection reagent was added to each well, converting ADP to ATP, catalysing the generation of luciferin by luciferase. The plate was shaken for 1 min, and incubated in the dark for an additional hour.
Luminescence from each well was detected using the Biotek Synergy4 HD plate reader and the percentage inhibition of kinase activity calculated for each inhibitor tested. Positive (kinase only) and negative (no kinase) controls were added to each plate to ensure specific interaction of kinase and inhibitor. The IC50 concentration for each inhibitor was calculated by plotting the percentage kinase inhibition against concentration of inhibitor and the curve generated by non-linear regression fitting.
On the technique in general: ADP-Glo turns the ADP formed in a reaction into a luminescent signal.

Data set [2] concerns phospho-cdc2 (Tyr15) in HT-29 cells. The data set can be described thus: Effect on phosphorylation of cdc2 at Tyr15 in HT-29 cells (PathScan ELISA). It is filed as cell-based. The note with it: Homo sapiens, HT-29, 8 h; HT29 cells, eight hours incubation; read-out: HT29 pCDC2 activity. On the procedure:
Method 2: Determining the effect of compounds on the phosphorylation of cdc2 at Tyr15
The colorectal cancer cell lines HT-29 and HCT-116 were purchased from the ATCC and routinely maintained in McCoy's Medium (Invitrogen) supplemented with 10% Foetal Calf Serum.
The cells were trypsinised from their growing vessel and counted, 100 μL of cell suspension containing 6000 cells was pipetted into black 96 well Co-star plates and incubated overnight to allow adherence to the surface at a temperature of 37° C. and an atmosphere of 5% CO2. Test compounds were formulated in DMSO and diluted in foetal calf serum supplemented medium. Incubating medium was removed by aspiration and diluted drug supplemented medium added to each well.
The plate was returned to the incubator for an additional eight hours at 37° C. and an atmosphere of 5% CO2. Post incubation, the drug supplemented medium was aspirated from each well and the cells were washed once in ice-cold phosphate buffered saline (PBS). 100 μL of cell lysis buffer (Cell Signalling Technologies #9803) containing 20 mM Tris, 150 mM NaCl, 1 mM EDTA, 1 mM EGTA, 1% Triton-X100, 2.5 mM sodium pyrophosphate, 1 mM glycerophosphate, 1 mM Na3VO4 and 1 μg/mL leupeptin was added to each well of the 96 well plate and incubated at 4° C. for 30 min. The samples on the plate were snap frozen at −80° C. until required.
Immediately before the continuation of the assay, the sample plate was thawed and centrifuged at 4° C. for 10 min and the supernatant transferred to secondary tubes or 96 well plate.
Cell supernatant was mixed in a ratio of 1:1 with sample dilutent buffer and vortexed for one minute. 100 μL of diluted sample was pipetted into pre-coated plates containing a rabbit polyclonal antibody for phospho-cdc2 (Tyr15) (Cell Signalling Technologies PathScan kit #7176). The plate was sealed and incubated overnight at 4° C.
The plate seal was removed and the well contents aspirated, followed by 3×5 min washes with 200 μL of diluted wash buffer. Between each wash the plate was tapped firmly onto blotting paper to ensure the removal of all kit solution. 100 μL of kit detection antibody was added to each well and the plate re-sealed and incubated at 37° C. for 1 h. Post incubation the plate was washed and processed in a similar manner to that previously described.
100 μL of horseradish peroxidise-linked secondary antibody was added to each test well, the plate sealed and incubated for thirty minutes at 37° C. Post incubation, the plate was washed as previously stated, followed by the addition of 100 μL of 3,3′,5,5′ tetramethylbenzidine (TMB reagent). The plate was sealed and incubated at RT for 30 min.
100 μL of stop solution was added to each well and the underside of the plate wiped with a lint-free tissue, prior to spectrophotometric determination. Absorbance from each well was read at 450 nm within 30 min of the addition of the stop solution.
The percentage of phospho-cdc2 was calculated compared to DMSO control and plotted versus the concentration of inhibitor using GraphPad Prism. Data was fitted using non-linear regression analysis and IC50 values generated.
A general note: In an ELISA, binding on a coated surface is turned into a signal by an enzyme label.

A short description of data set [3]: CLint estimates using human liver microsomes. The format is in vitro ADME. As to conditions: pH 7.4, read-out: HLM activity (HLM CLint). The method, then:
Method for the Determination of CLint Estimates Using Human Liver Microsomes
Test compounds (final concentration=1 μM; final DMSO concentration=0.1%) were incubated in 0.1M phosphate buffer pH 7.4 with human liver microsomes (0.5 mg of protein/mL) at 37° C. Reactions were started by addition of NADPH in 0.1M phosphate buffer pH 7.4 (final concentration 1 mM). 40 μL aliquots were removed at 2, 5, 10, 15, 20, 30, 40 and 50 min. Reactions were quenched in 80 μL of ice-cold methanol. Samples were subsequently frozen overnight then centrifuged at 3500 rpm for 20 min at 4° C. The supernatants were removed and transferred into analytical plates and analysed by LC/MS/MS.
All samples were analysed on a Waters Acquity I-Class coupled to a Waters Xevo TQD mass spectrometer. A Waters BEH C18 2.1×50 mm 1.7 μm column was used and mobile phases were water and methanol containing 0.1% formic acid as modifier. Analysis was by multiple reaction monitoring and conditions were optimised for each test compound.
From a plot of ln peak area against time, the gradient of the line is determined. Subsequently, half-life and intrinsic clearance are calculated using the following equations.

A value given as a limit tells only on which side of the number the result lay.

Wee-1 kinase, sequence (P30291 whole entry): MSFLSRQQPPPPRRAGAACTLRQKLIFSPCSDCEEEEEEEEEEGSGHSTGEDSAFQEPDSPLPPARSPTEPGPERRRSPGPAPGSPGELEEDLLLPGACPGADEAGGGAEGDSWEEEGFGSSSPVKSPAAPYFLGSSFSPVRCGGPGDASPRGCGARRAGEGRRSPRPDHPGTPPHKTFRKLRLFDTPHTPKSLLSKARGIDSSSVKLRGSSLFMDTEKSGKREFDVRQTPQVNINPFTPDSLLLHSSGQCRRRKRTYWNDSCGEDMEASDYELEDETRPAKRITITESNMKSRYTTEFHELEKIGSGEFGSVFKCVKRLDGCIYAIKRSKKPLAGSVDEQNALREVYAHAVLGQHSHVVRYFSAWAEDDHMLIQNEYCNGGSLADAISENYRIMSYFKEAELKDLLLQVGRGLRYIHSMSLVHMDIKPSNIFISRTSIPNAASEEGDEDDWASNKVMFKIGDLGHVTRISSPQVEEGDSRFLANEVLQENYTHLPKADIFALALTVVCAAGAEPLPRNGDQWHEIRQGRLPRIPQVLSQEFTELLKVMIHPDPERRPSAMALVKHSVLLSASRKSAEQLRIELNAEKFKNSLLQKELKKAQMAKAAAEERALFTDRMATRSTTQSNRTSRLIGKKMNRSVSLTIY

For `CC(=O)Nc1cn(-c2c(Cl)cccc2Cl)c(=O)c2cnc(Nc3ccc(N4CCNCC4)cc3)nc12` [Example 28, N-(6-(2,6-Dichlorophenyl)-5-oxo-2-((4-(piperazin-1-yl)phenyl)amino)-5,6-dihydropyrido[4,3-d]pyrimidin-8-yl)acetamide], in data set [1], the IC50 was above 200 nM.
On to `Cc1cc(Nc2ncc3c(=O)n(-c4c(Cl)cccc4Cl)cc(C#CCO)c3n2)ccc1N1CCNCC1` [Example 14, 6-(2,6-Dichlorophenyl)-8-(3-hydroxyprop-1-yn-1-yl)-2-((3-methyl-4-(piperazin-1-yl)phenyl)amino)pyrido[4,3-d]pyrimidin-5(6H)-one], for which the IC50 in data set [1] was below 10 nM; in data set [2], at most 100 nM. For the same compound, the microsomal CLint at 1 μM in data set [3] was at most 20 µL/min/mg.
Taken in the same sequence, the figures for `O=c1c2cnc(Nc3ccc(N4CCNCC4)c(F)c3)nc2ccn1-c1c(Cl)cccc1Cl` [Example 29, 6-(2,6-Dichlorophenyl)-2-((3-fluoro-4-(piperazin-1-yl)phenyl)amino)pyrido[4,3-d]pyrimidin-5(6H)-one] were below 10 nM, at most 100 nM and at most 20 µL/min/mg.
Turning to `NCc1cccc(Nc2ncc3c(=O)n(-c4c(Cl)cccc4Cl)ccc3n2)c1` [Example 25, 2-((3-(Aminomethyl)phenyl)amino)-6-(2,6-dichlorophenyl)pyrido[4,3-d]pyrimidin-5(6H)-one], the IC50 in data set [2] is at least 1000 nM. Besides, the microsomal CLint at 1 μM in data set [3] is above 20 µL/min/mg.
On to `O=c1c2cnc(Nc3ccc(N4CCNCC4)cc3)nc2ccn1-c1cccnc1Cl` [Example 3, 6-(2-Chloropyridin-3-yl)-2-((4-(piperazin-1-yl)phenyl)amino)pyrido[4,3-d]pyrimidin-5(6H)-one], for which, in data set [1], the IC50 is above 200 nM. Further, the microsomal CLint at 1 μM in data set [3] is at most 20 µL/min/mg.
Regarding `NCC#Cc1cn(-c2c(Cl)cccc2Cl)c(=O)c2cnc(Nc3ccc(N4CCOCC4)cc3)nc12` [Example 22, 8-(3-Aminoprop-1-yn-1-yl)-6-(2,6-dichlorophenyl)-2-((4-morpholinophenyl)amino)pyrido[4,3-d]pyrimidin-5(6H)-one], the IC50 was below 10 nM in data set [1] and at most 100 nM in data set [2]. For the same compound, the microsomal CLint at 1 μM in data set [3] is above 20 µL/min/mg.
As for `CN1CCN(c2ccc(Nc3ncc4c(=O)n(-c5c(Cl)cccc5Cl)ccc4n3)cc2)CC1` [Example 15, 6-(2,6-Dichlorophenyl)-2-((4-(4-methylpiperazin-1-yl)phenyl)amino)pyrido[4,3-d]pyrimidin-5(6H)-one], the IC50 in data set [2] fell in the range of 100 to 1000 nM. Moreover, the microsomal CLint at 1 μM in data set [3] was above 20 µL/min/mg.
Take `O=c1c2cnc(Nc3cc(F)c(N4CCNCC4)c(F)c3)nc2ccn1-c1c(Cl)cccc1Cl` [Example 30, 6-(2,6-Dichlorophenyl)-2-((3,5-difluoro-4-(piperazin-1-yl)phenyl)amino)pyrido[4,3-d]pyrimidin-5(6H)-one]: the IC50 in data set [1] was 10 to 200 nM; in data set [2], at least 1000 nM. In addition, the microsomal CLint at 1 μM in data set [3] was at most 20 µL/min/mg.
For `O=c1c2cnc(Nc3ccc(N4CCNCC4)cc3)nc2c(Br)cn1-c1c(Cl)cccc1Cl` [Example 9, 8-Bromo-6-(2,6-dichlorophenyl)-2-((4-(piperazin-1-yl)phenyl)amino)pyrido[4,3-d]pyrimidin-5(6H)-one], in that order: below 10 nM, 100 to 1000 nM and at most 20 µL/min/mg.
With `CCN(CC)CCOc1ccc(Nc2ncc3c(=O)n(-c4c(Cl)cccc4Cl)ccc3n2)cc1` [Example 4, 6-(2,6-Dichlorophenyl)-2-((4-(2-(diethylamino)ethoxy)phenyl)amino)pyrido[4,3-d]pyrimidin-5(6H)-one], the IC50 in data set [2] fell in the range of 100 to 1000 nM. The microsomal CLint at 1 μM in data set [3] was above 20 µL/min/mg.
`Cc1cc(Nc2ncc3c(=O)n(-c4ccccc4Cl)ccc3n2)ccc1N1CCNCC1` [Example 24, 6-(2-Chlorophenyl)-2-((3-methyl-4-(piperazin-1-yl)phenyl)amino)pyrido[4,3-d]pyrimidin-5(6H)-one]: the IC50 was below 10 nM in data set [1] and 100 to 1000 nM in data set [2]. Also, in data set [3], the microsomal CLint at 1 μM is at most 20 µL/min/mg.
For `CC(=O)N1CCN(c2ccc(Nc3ncc4c(=O)n(-c5c(Cl)cccc5Cl)ccc4n3)cc2)CC1` [Example 5, 2-((4-(4-Acetylpiperazin-1-yl)phenyl)amino)-6-(2,6-dichlorophenyl)pyrido[4,3-d]pyrimidin-5(6H)-one], in that order: 10 to 200 nM, 100 to 1000 nM and at most 20 µL/min/mg.
For `O=c1c2cnc(Nc3ccc(N4CCNCC4)cc3)nc2c(-c2cccnc2)cn1-c1c(Cl)cccc1Cl` [Example 23, 6-(2,6-Dichlorophenyl)-2-((4-(piperazin-1-yl)phenyl)amino)-8-(pyridin-3-yl)pyrido[4,3-d]pyrimidin-5(6H)-one], in that order: below 10 nM, at most 100 nM and above 20 µL/min/mg.
On to `CN1CCN(c2ccc(Nc3ncc4c(=O)n(-c5c(Cl)cccc5Cl)ccc4n3)cn2)CC1` [Example 31, 6-(2,6-Dichlorophenyl)-2-((6-(4-methylpiperazin-1-yl)pyridin-3-yl)amino)pyrido[4,3-d]pyrimidin-5(6H)-one], for which the IC50 in data set [2] lay within 100 to 1000 nM. Further, the microsomal CLint at 1 μM in data set [3] was above 20 µL/min/mg.
For `O=c1c2cnc(Nc3ccc(N4CCS(=O)(=O)CC4)cc3)nc2ccn1-c1c(Cl)cccc1Cl` [Example 6, 6-(2,6-Dichlorophenyl)-2-((4-(1,1-dioxidothiomorpholino)phenyl)amino)pyrido[4,3-d]pyrimidin-5(6H)-one], in that order: 100 to 1000 nM and above 20 µL/min/mg.
For `CN1CCN(c2cccc(Nc3ncc4c(=O)n(-c5c(Cl)cccc5Cl)ccc4n3)c2)CC1` [Example 26, 6-(2,6-Dichlorophenyl)-2-((3-(4-methylpiperazin-1-yl)phenyl)amino)pyrido[4,3-d]pyrimidin-5(6H)-one], in that order: at least 1000 nM and above 20 µL/min/mg.
Take `CN1CCN(C(=O)c2ccc(Nc3ncc4c(=O)n(-c5c(Cl)cccc5Cl)ccc4n3)cc2)CC1` [Example 32, 6-(2,6-Dichlorophenyl)-2-((4-(4-methylpiperazine-1-carbonyl)phenyl)amino)pyrido[4,3-d]pyrimidin-5(6H)-one]: the IC50 lay in the range of 10 to 200 nM in data set [1] and 100 to 1000 nM in data set [2].
